In paper PMC9072249 (Acta Pharmaceutica Sinica. B, 2021):

Tested on: SD rat with neuropathic pain model induced by spared nerve injury (SNI)
Assay: Neuropathic pain model induced by spared nerve injury
Format: in vivo
Settings: SNI SD rats, po BID, 60 mg/kg/day, 20 days

Structure (SMILES): NCC1(CC(=O)O)CCCCC1 [gabapentin]
- course of efficacy over the study: gradually reduced
